ChEMBL document CHEMBL3044768, “Chemistry, toxicity and antifeedant activity of the resin of Flourensia thurifera” (1997)
≈ marks a conversion by molar mass, not a printed value.

Tests used:
Artemia salina = experiment: Toxicity against Artemia salina (brine shrimp) after 24 hr; format: functional
Spodoptera littoralis = experiment: Antifeedant activity against fifth instar larvae of Spodoptera littoralis fed on compound-treated lettuce leaf at 10 ug/cm'2 by leaf-disk method; format: functional; design: unit not given here

Row | Structure (SMILES) | LC50 (Artemia salina) [µg/mL] | FR50 (Spodoptera littoralis)
1 | COC(=O)/C=C/c1ccc(OC(C)=O)c(C/C=C(\C)COC(C)=O)c1 | 39.8 (≈ 115 µM) | –
2 | COc1cc2ccc(=O)oc2c(O)c1OCC=C(C)C [CAPENSIN] | 52.5 (≈ 190 µM) | 1.04
3 | CC(=O)c1cc2c(cc1O)OC(C)(C)C=C2 [DEMETHYLENCECALIN] | 17.6 (≈ 80.6 µM) | 0.4
4 | CC(C)=CCc1cc(/C=C/C(=O)O)ccc1O [DRUPANIN] | 104 (≈ 449 µM) | 78
5 | COc1cc2c(cc1C(C)=O)C=CC(C)(C)O2 [ENCECALIN] | 0.9 (≈ 3.87 µM) | 0.08
6 | C=C(C)c1cc2cc(C(C)=O)c(O)cc2o1 [EUPARIN] | 58.9 (≈ 272 µM) | 0.42
7 | COc1cc2ccc(=O)oc2cc1OCC=C(C)C [PRENYLETIN 6-METHYL ETHER] | 17.6 (≈ 67.6 µM) | 0.43
8 | CC(C)=CCOc1cc2oc(=O)ccc2cc1O [PRENYLETIN] | 3.8 (≈ 15.4 µM) | 1.06
9 | COc1cc(O)c2c(=O)c(O)c(-c3ccc(O)c(O)c3)oc2c1 [RHAMNETIN] | – | 71
